What was measured:
[1] = Intrinsic clearance in human liver microsome; format: ADME; conditions: liver microsomes
[2] = Intrinsic clearance in Sprague-Dawley rat liver microsome; format: ADME; conditions: liver microsomes
[3] = Intrinsic clearance in BALB/c mouse liver microsome; format: ADME; conditions: liver microsomes
[4] = Clearance in rat; format: ADME, organism-based; conditions: in vivo
[5] = Half life in rat; format: ADME, organism-based; conditions: in vivo
[6] = Oral bioavailability in rat; format: ADME, organism-based; conditions: in vivo
Mus musculus = assay: Inhibition of HGF-mediated c-Met phosphorylation in BALB/c mouse liver at 30 mg/kg, po after 6 hrs; format: functional; design: scale not given: the % may be the effect or the level left

- microsomal CLint [1]: < 55 µL/min/mg
- microsomal CLint [2]: < 60 µL/min/mg
- microsomal CLint [3]: < 45 µL/min/mg
- clearance [4]: < 3.33 mL/min/kg
- half-life [5]: 1.9 h
- bioavailability [6]: > 50%
Compound: COc1ccc2c(Oc3ccc(NC(=O)c4c(C)n(C[C@@H](C)O)n(-c5ccccc5)c4=O)cc3F)ccnc2c1
- Activity (Mus musculus): 98%

Source: ChEMBL document CHEMBL1157538, “Discovery of a potent, selective, and orally bioavailable c-Met inhibitor: 1-(2-hydroxy-2-methylpropyl)-N-(5-(7-methoxyquinolin-4-yloxy)pyridin-2-yl)-5-methyl-3-oxo-2-phenyl-2,3-dihydro-1H-pyrazole-4-carboxamide (AMG 458)” (J Med Chem, 2008)
